Assay results as given in patent publication US20110104301A1, “METHODS OF REDUCING PAIN AND INFLAMMATION” (Georgetown University, A Congressionally Chartered …, priority 2008, published 2011).

What was measured:
TRPM8 = target: T1, TRPM8 (Rattus norvegicus, UniProt Q8R455); experiment: Whole-cell patch-clamp of TRPM8-expressing HEK293 cells; assay type: cell-based
T1 construct: expressed in transfected cells; host or cells: HEK 293F
Experimental: Electrophysiology. […] Whole-cell and single-channel patch-clamp recordings were performed by using an EPC8 amplifier (HEKA Electronics). For whole-cell and excised patch recordings the bath solution contained 140 mMNaCl, 4 mMKCl, 1 mMMgCl2, 1.2 mMCaCl2, 10 mMHepes, 10 mM glucose, pH 7.3. For cell-attached experiments, NaCl was replaced with KCl in the bath solution. […] For neuronal recording NaCl was replaced with K-gluconate (plus 1 mMATP, 0.2 mM GTP). Solutions were applied via a gravity-fed system. […] Voltage-dependent properties were measured as described in Matt and Ahern, J. Physiol. […] The baseline currents under control conditions were subtracted. For cell-attached experiments, peak amplitudes were measured from all-points histograms, and open probability was measured as NPo>750 ms. Defolliculated Xenopus laevis oocytes were injected with ≈10 ng of hTRPA1 (gift of Ardem Patapoutian, The Scripps Research Institute, La Jolla, Calif.).

[1] = tested on: AITC-sensitive DRG neurons; experiment: Voltage- and current-clamp of DRG sensory neurons; assay type: cell-based, mouse; settings: 0.9 mM, wild-type mice, voltage-clamp, 11 of 35
TRPV1 = target: T2, TRPV1 (Mus musculus, UniProt Q704Y3); experiment: Patch-clamp of capsaicin-sensitive sensory neurons (nodose ganglia); assay type: cell-based
T2 construct: endogenous in cells; host or cells: primary nodose ganglion neurons of adult C57Bl6/J mice
T2 sequence (Q704Y3 whole entry): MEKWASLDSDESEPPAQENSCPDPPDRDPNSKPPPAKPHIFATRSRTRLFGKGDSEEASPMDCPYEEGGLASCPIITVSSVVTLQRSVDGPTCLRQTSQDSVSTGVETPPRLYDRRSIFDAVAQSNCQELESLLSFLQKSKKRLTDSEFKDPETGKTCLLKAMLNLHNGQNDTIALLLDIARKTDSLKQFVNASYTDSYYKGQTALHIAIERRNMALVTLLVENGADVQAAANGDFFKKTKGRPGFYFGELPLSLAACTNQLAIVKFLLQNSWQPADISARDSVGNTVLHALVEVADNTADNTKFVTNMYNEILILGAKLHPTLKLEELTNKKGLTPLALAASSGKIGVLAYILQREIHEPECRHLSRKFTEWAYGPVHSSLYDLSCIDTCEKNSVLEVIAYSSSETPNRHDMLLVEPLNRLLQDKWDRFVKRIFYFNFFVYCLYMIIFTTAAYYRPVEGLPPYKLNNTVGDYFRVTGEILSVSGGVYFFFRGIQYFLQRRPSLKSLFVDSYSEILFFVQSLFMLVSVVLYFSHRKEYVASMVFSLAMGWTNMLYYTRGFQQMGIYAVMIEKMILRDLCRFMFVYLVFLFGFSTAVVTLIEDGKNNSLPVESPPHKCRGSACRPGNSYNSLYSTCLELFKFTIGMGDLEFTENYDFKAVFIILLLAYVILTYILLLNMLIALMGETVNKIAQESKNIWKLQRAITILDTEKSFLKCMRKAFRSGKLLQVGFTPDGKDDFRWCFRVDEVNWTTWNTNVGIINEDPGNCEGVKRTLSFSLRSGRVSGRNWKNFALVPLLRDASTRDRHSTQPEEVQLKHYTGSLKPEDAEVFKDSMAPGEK
Experimental: HEK cell and sensory neuron electrophysiology. HEK 293F cells (Invitrogen) were cultured in DMEM supplemented with 1% non-essential amino acids and 10% fetal calf serum. Cell cultures were maintained at 37° C. with 5% CO2. Cells were transfected with rat TRPV 1 (gift of David Julius), and GFP cDNA using Lipofectamine™ Transfection Reagent (Invitrogen) and used 24-48 h after transfection. Nodose ganglia were obtained from adult mice (C57B16/J and TRPV1-null), cut, digested with collagenase, and cultured in Neurobasal +2% B-27 medium (Invitrogen), 0.1% L-glutamine and 1% penicillin/streptomycin on poly-D lysine-coated glass coverslips at 37° C. in 5% CO2. Neurons were used within 24-36 hr of culture. Whole-cell and single-channel patch clamp recordings were performed using an EPC8 amplifier (HEKA). The current signal was low-pass filtered at 1-3 kHz and sampled at 4 kHz. Currents were further filtered for display purposes. For whole-cell and excised patch recordings the bath solution contained (in mM): 140 NaCl, 4 KCl, 1 MgCl2, 1 EGTA, 10 HEPES, 10 glucose pH 7.3 (290 mOsm). The pipette solution contained (in mM): 140 CsC1, 10 NaCl, 10 HEPES, 5 EGTA, 2 Mg ATP and 0.03 GTP, pH 7.3. The peak amplitudes measured either during the prepulse or the tail current (within 1 ms) were plotted as a function of the test potential and normalized to the maximal current obtained from the following Boltzmann function: […]

T1 sequence (Q8R455 whole entry): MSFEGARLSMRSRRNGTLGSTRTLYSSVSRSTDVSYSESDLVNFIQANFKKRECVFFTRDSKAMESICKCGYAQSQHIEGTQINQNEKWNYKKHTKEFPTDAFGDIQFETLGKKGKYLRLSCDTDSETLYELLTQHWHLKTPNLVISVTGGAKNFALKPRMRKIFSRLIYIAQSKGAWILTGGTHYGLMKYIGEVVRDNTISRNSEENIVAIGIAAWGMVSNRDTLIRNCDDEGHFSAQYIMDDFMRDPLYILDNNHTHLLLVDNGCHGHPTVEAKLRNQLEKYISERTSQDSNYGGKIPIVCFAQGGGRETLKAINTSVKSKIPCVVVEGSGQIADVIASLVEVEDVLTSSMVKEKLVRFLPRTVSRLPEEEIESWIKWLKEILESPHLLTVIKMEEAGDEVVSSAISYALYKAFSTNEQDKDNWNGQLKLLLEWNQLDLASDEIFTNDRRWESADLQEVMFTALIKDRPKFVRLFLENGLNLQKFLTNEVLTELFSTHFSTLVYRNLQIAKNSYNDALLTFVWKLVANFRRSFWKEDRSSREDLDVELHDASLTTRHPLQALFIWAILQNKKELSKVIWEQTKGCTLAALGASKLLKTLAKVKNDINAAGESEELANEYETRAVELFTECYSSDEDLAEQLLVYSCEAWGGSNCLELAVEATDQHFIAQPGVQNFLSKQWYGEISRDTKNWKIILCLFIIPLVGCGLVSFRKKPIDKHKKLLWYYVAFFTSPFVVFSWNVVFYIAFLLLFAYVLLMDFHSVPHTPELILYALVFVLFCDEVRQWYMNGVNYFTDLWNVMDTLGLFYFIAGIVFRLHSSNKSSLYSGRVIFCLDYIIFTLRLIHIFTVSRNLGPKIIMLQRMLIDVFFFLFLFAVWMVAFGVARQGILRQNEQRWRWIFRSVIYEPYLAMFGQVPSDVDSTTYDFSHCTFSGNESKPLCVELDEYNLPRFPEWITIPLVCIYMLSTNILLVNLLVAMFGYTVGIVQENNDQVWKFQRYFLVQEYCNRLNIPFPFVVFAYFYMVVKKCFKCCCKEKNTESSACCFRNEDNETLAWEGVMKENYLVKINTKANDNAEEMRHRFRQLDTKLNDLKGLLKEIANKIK

SMILES: FC(F)OC(Cl)C(F)(F)F (stereo not drawn) [isoflurane]
- Activation of TRPM8 currents (TRPM8; 0.9 mM (2.9 MAC)): failed to activate
- Effects at TRPM8 at holding potential −50 mV (TRPM8; isoflurane 0.9 mM, octanol 1 mM): negligible effects
- Neurons with evoked currents [1]: 31%
- Capsaicin-evoked single channel activity (TRPV1; cell-free outside-out patches, capsaicin 30 nM, isoflurane 0.9 mM): increased
- Single TRPV1 channel activity in neurons after PDBu treatment (TRPV1; isoflurane 0.9 mM): activated
- Response of sensory neurons under control conditions (TRPV1; isoflurane 0.9 mM, AITC-insensitive neurons): negligible responses
- Enhancement of capsaicin-evoked whole-cell currents (TRPV1; isoflurane 0.9 mM, capsaicin 30 nM, n=5): approximately 3 fold
- Response of sensory neurons after BK treatment (TRPV1; isoflurane 0.9 mM, n=7, P<0.01): marked increase in current
- Membrane excitability under current-clamp, co-application with BK (TRPV1; n=3): depolarized neurons and initiated sustained spike discharge
